The target in this assay is T1, IκBα ubiquitinating enzyme (SCF complex: ROC1, Cullin1, Skp1, His-TrCP1; with E1, UbcH5b) (Homo sapiens, UniProt P62877+P63208+Q13616+Q9Y297).
T1 construct: His (polyhistidine); made in house; host or cells: insect cells (baculovirus) for the SCF complex and His-E1; E. coli for His-UBCH5b
The assay can be described thus: Measurement of ubiquitinating enzyme activity (IκBα ubiquitination, time-resolved fluorescence with Eu(K)-labeled ubiquitin and XL665-labeled anti-GST antibody). The format is biochemical. As for the experimental part:
Method 1: Measurement of ubiquitinating enzyme activity
A recombinant vector His-UBCH5b containing a polyhistidine tag (His) and UBCH5b was prepared. E. coli was transformed with the vector, the protein was expressed, and affinity purification was carried out using Ni-NTA agarose (Qiagen). Four types of recombinant baculoviruses (ROC1, Cullin1, Skp1, and His-TrCP1) were prepared for the SCF complex protein, insect cells were infected in quadruplicate for expression, and affinity purification was carried out using Ni-NTA agarose. Recombinant baculoviruses His-IKKβ, His-E1 were prepared. The insect cells were infected with each of those for expression, and affinity purification was carried out using Ni-NTA agarose. A recombinant vector GST-IκBα was prepared by fusing glutathione-S-transferase tag (GST) and IκBα, E. coli was transformed with the vector for the protein expression, and affinity purification was carried out using glutathione sepharose (Amersham Biosciences). Genetic transformants were prepared by PCR amplification followed by recombination, all of which were based on published human-derived sequences.
Phosphorylation reaction of IκBα was performed by incubating the above-mentioned assay buffer (50 mM Tris-HCl (pH7.4), 2 mM ATP, 5 mM MgCl2, 0.5 mM DTT, 0.1% BSA) containing IκBα and IKKβ at room temperature for 1 hour. Ubiquitination reactions were carried out as follows. Compound samples at various concentrations, ubiquitin, Eu (K)-labeled ubiquitin, E1, UbcH5b, and SCF complex were added to phosphorylated IκBα, and then this was incubated at room temperature for 30 minutes. The reaction was terminated by adding EDTA, the above-mentioned revelation buffer (100 mM phosphate buffer (pH7.0), 0.5 M KF, 0.1% BSA) containing XL665-labeled anti-GST antibody was added and this was left to stand at room temperature for 2 hours. Measurements were made using ARVO-HTS (Perkin Elmer). The ratio of fluorescence intensities at 620 nm and 665 nm (Em 665 nm/Em 620 nm x 10,000) with excitation light at 337 nm was measured.
The ubiquitination level without the addition of a compound sample was used as the control value, and the level in the absence of SCF complex was used as the blank value for the assays. Inhibitory activities of the compounds were indicated as % inhibition = 100 - (value with a compound sample added - blank value) / (control value - blank value) x 100. IC50 was indicated as the concentration of the compound showing 50% inhibition. Eu (K)-labeled ubiquitin, XL665-labeled anti-GST antibody, and XL665-labeled anti-His antibody were purchased from CIS bio international. Costar solid black plates (96 wells) were used for the assays.

Where [1] appears, read: enzyme activity inhibition test, method (1), Table 5; read-out: EVALUATION

Among the data in patent publication EP1900728A1 (Genecare Research Institute Co., Ltd, priority 2005, dated 2006) are IC50 values, retold here.

Read-outs that look alike come from different tables or passages of the source.

T1 sequence (Q9Y297 whole entry): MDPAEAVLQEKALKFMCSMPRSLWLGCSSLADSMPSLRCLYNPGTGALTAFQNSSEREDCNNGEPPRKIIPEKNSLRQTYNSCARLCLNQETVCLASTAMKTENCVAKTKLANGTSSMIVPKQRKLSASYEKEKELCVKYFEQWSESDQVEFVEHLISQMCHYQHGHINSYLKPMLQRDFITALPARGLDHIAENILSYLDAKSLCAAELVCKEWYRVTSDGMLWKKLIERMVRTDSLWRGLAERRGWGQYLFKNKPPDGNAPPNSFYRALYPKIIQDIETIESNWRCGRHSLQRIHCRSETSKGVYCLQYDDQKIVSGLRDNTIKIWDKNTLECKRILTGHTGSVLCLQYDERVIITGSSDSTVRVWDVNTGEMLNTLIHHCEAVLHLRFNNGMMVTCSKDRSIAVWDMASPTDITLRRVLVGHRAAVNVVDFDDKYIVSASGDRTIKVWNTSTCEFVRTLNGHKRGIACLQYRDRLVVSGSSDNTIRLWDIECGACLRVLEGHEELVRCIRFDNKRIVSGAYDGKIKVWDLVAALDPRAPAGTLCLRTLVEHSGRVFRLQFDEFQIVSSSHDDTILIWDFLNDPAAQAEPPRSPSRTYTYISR
T1 sequence (Q13616 whole entry): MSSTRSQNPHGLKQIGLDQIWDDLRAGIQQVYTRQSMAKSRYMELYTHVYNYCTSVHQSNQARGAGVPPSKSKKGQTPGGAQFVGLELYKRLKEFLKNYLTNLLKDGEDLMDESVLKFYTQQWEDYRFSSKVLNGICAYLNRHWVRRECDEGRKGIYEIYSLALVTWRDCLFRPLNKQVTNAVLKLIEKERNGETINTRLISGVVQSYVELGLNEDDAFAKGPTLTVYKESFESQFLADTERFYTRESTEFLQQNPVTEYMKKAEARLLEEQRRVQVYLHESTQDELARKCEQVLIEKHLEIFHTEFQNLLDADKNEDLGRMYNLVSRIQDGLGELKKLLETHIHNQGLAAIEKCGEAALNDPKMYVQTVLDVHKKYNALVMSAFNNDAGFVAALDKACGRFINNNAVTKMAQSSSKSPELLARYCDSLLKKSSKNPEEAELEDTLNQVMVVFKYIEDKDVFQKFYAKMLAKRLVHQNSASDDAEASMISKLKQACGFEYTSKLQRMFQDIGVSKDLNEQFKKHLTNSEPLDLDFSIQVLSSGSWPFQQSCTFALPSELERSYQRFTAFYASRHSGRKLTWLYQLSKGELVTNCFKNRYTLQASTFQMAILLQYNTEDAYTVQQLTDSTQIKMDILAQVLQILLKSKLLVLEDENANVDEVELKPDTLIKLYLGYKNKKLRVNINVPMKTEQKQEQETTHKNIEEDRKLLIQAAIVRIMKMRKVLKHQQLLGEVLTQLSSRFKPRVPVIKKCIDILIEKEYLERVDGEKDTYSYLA
T1 sequence (P63208 whole entry): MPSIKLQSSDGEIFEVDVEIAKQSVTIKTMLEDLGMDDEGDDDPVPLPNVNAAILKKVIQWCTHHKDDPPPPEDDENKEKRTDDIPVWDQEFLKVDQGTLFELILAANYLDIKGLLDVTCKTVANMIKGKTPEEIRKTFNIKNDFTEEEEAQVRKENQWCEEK
T1 sequence (P62877 whole entry): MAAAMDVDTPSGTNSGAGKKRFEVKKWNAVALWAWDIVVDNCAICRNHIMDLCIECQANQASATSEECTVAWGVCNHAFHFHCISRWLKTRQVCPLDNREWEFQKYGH

For `CC1=NN(c2cccc(C(=O)O)c2)C(=O)/C1=C\c1ccc(N2CCC(N3CCCC3)CC2)cc1` [Compound 435], under setting [1], the IC50 fell in the range of 10 to 20 µM.
For the molecule `CC1=NN(c2cccc(C(=O)O)c2)C(=O)/C1=C\c1ccc(S(=O)(=O)O)o1` [Compound 520], the IC50 under setting [1] fell in the range of 10 to 20 µM.
In the case of `O=C(O)c1ccc(N2N=C(Cc3ccccc3)/C(=C/c3ccc(N4CCCC4)cc3)C2=O)cc1` [Compound 269], under setting [1], the IC50 lay in the range of 10 to 20 µM.
As to `CC1=NN(c2ccc(C(=O)O)cc2)C(=O)/C1=C\c1c(C)nn(C)c1Cl` [Compound 514], the IC50 under setting [1] was less than 40 µM.
As for `CC1=NN(c2ccccc2)C(=O)/C1=C\c1ccc(N2CCN(C)CC2)cc1` [Compound 99], under setting [1], the IC50 was in the range of 10 to 20 µM.
Consider `CCOC(=O)CN1N=C(C)/C(=C/c2ccc(O)c(OC)c2)C1=O` [Compound 130], for which the IC50 under setting [1] fell in the range of 10 to 20 µM.
Turning to `Cn1cc(-c2ccc(/C=C3\C(=O)N(c4cccc(C(=O)O)c4)N=C3Cc3ccccc3)o2)cn1` [Compound 510], the IC50 under setting [1] is less than 40 µM.
For `CC1=NN(c2cccc(C(=O)N3CCC(C(=O)O)CC3)c2)C(=O)/C1=C\c1ccc2[nH]ccc2c1` [Compound 374], the IC50 under setting [1] is less than 10 µM.
In the case of `CC1=NN(c2cccc(C(=O)O)c2)C(=O)/C1=C\c1ccoc1` [Compound 418], the IC50 under setting [1] lay within 10 to 20 µM.
In the case of `CC1=NN(c2cccc(C(=O)NCC3CC3)c2)C(=O)/C1=C\c1ccc2c(c1)OCCO2` [Compound 404], the IC50 under setting [1] was less than 40 µM.
Take `O=C(O)c1ccc(N2N=C(c3cccnc3)/C(=C/c3ccc4c(c3)OCCO4)C2=O)cc1` [Compound 310]: under setting [1], the IC50 fell in the range of 10 to 20 µM.
Turning to `CC1=NN(c2ccc(S(N)(=O)=O)cc2)C(=O)C1=Cc1ccc(NC(=O)c2ccco2)cc1` [Compound 231], the IC50 under setting [1] was less than 10 µM.
Consider `CC1=NN(c2cccc(C(=O)O)c2)C(=O)/C1=C\c1ccc2c(ccn2C(=O)c2ccccc2)c1` [Compound 529], for which, under setting [1], the IC50 was less than 10 µM.
Same read-out and setting: in the case of `CC1=NN(c2ccc(C(=O)O)cc2)C(=O)C1=Cc1ccc(N2CCC(N3CCCC3)CC2)cc1` [Compound 450] it was less than 40 µM; in that of `CC1=NN(c2ccc(C(=O)O)cc2)C(=O)/C1=C\c1nccs1` [Compound 257], less than 40 µM; in that of `COC(=O)N1CCN(c2ccc(C=C3C(=O)N(c4ccc(C(=O)O)cc4)N=C3c3ccccn3)cc2)CC1` [Compound 335], 10 to 20 µM.
As for `CCCCC1=NN(c2cccc(C(=O)O)c2)C(=O)/C1=C\c1ccc2c(c1)OCCO2` [Compound 470], the IC50 under setting [1] lay within 10 to 20 µM.
As for `CC(C)(C)OC(=O)N1CCN(C(=O)C2=NN(c3ccccc3)C(=O)/C2=C\c2ccc(-c3ccccc3F)o2)CC1` [Compound 88], under setting [1], the IC50 is less than 40 µM.
Same read-out and setting: as for `COCC1=NN(c2ccccc2)C(=O)/C1=C\c1ccc(-n2cccn2)cc1` [Compound 10], the figure is less than 40 µM; as for `CC1=NN(c2cccc(S(N)(=O)=O)c2)C(=O)/C1=C\c1ccc(-n2cccn2)cc1` [Compound 145], 10 to 20 µM.
Consider `CC1=NN(c2ccc(S(N)(=O)=O)cc2)C(=O)/C1=C\c1ccccc1O` [Compound 219], for which the IC50 under setting [1] is less than 40 µM.
Take `CC1=NN(c2ccc(C(=O)O)cc2)C(=O)/C1=C\c1ccc(N2CCC(CO)CC2)cc1` [Compound 426]: the IC50 under setting [1] was in the range of 10 to 20 µM.
As for `CC1=NN(c2ccc(S(N)(=O)=O)cc2)C(=O)/C1=C\c1ccc(N2CCC(CO)CC2)cc1` [Compound 171], the IC50 under setting [1] lay within 10 to 20 µM.
Regarding `CC1=NN(c2cccc(C(=O)O)c2)C(=O)/C1=C\c1ccc(-n2cccn2)cc1` [Compound 379], under setting [1], the IC50 is less than 10 µM.
Regarding `O=C(O)c1ccc(N2N=C(c3ccncc3)/C(=C/c3ccc(-c4ccccc4F)o3)C2=O)cc1` [Compound 341], the IC50 under setting [1] fell in the range of 10 to 20 µM.
For the molecule `COc1cc(/C=C2\C(=O)N(c3cccc(S(N)(=O)=O)c3)N=C2C)ccc1OS(=O)(=O)c1ccc(C)cc1` [Compound 203], the IC50 under setting [1] was in the range of 10 to 20 µM.
On the same count and under the same terms, in the case of `COCCNC(=O)c1cccc(N2N=C(C)/C(=C/c3ccc4c(c3)OCCO4)C2=O)c1` [Compound 405] it was less than 40 µM; in that of `COc1ncccc1/C=C1\C(=O)N(c2cccc(C(=O)O)c2)N=C1C` [Compound 506], less than 40 µM.
Regarding `O=C1/C(=C\c2ccc(-n3cccn3)cc2)C(c2cccnc2)=NN1c1ccccc1` [Compound 67], the IC50 under setting [1] was less than 40 µM.
For the molecule `CC1=NN(c2cccc(C(=O)O)c2)C(=O)/C1=C\c1ccc2[nH]ccc2c1` [Compound 364], the IC50 under setting [1] is less than 10 µM.
As for `CC1=NN(c2ccc(S(N)(=O)=O)cc2)C(=O)/C1=C\c1ccc(N2CCN(c3ccc(F)cc3)CC2)cc1` [Compound 176], the IC50 under setting [1] is less than 10 µM.
For the molecule `O=C1/C(=C\c2ccc(CO)o2)C(c2cccnc2)=NN1c1ccccc1` [Compound 64], the IC50 under setting [1] is less than 40 µM.
With `CC1=NN(c2cccc(C(=O)O)c2)C(=O)C1=Cc1ccc(-c2cnn(C)c2)o1` [Compound 495], for the setting “read-out: EVALUATION; enzyme activity inhibition test, method (1), Table 5”, the IC50 is 10 to 20 µM.
In the case of `O=C(O)c1ccc(N2N=C(Cc3ccccc3)/C(=C/c3ccc(-n4cncn4)cc3)C2=O)cc1` [Compound 276], the IC50 under setting [1] was less than 40 µM.
Take `CC1=NN(c2cccc(S(N)(=O)=O)c2)C(=O)/C1=C\c1ccc2cc[nH]c2c1` [Compound 149]: under setting [1], the IC50 is less than 10 µM.
For `COc1ccc(C2=NN(c3ccccc3)C(=O)C2=Cc2ccc3c(c2)OCCO3)cc1` [Compound 93], under setting [1], the IC50 is less than 40 µM.
Same read-out and setting: in the case of `CCCCC1=NN(c2ccc(C(=O)O)cc2)C(=O)/C1=C\c1ccc2ccccc2c1` [Compound 336] it was 10 to 20 µM; in that of `CN1CCN(c2ccc(/C=C3\C(=O)N(c4ccccc4)N=C3Cc3ccccc3)cc2)CC1` [Compound 100], less than 40 µM.
Same read-out and setting: in the case of `CC1=NN(c2cccc(C(=O)O)c2)C(=O)/C1=C\c1ccc(N2CCC(CO)CC2)cc1` [Compound 421] it was less than 10 µM; in that of `COc1cc(/C=C2\C(=O)N(c3cccc(S(N)(=O)=O)c3)N=C2C)ccc1OCc1c(C)noc1C` [Compound 153], less than 40 µM; in that of `COc1ccc(C2=NN(c3ccc(C(=O)O)cc3)C(=O)/C2=C\c2cccc3nccnc23)cc1OC` [Compound 278], less than 40 µM.
For the molecule `CC1=NN(c2ccc(C(=O)O)cc2)C(=O)/C1=C\c1ccc2cc[nH]c2c1` [Compound 380], under setting [1], the IC50 was less than 10 µM.
Consider `O=C1/C(=C\c2ccc3c(c2)OCCO3)C(c2ccncc2)=NN1c1ccccc1` [Compound 46], for which the IC50 under setting [1] was less than 40 µM.
Consider `O=C1/C(=C\c2ccc(-n3cccn3)cc2)C(C2CC2)=NN1c1ccccc1` [Compound 79], for which, under setting [1], the IC50 is less than 40 µM.
For `COC(=O)N1CCN(c2ccc(/C=C3\C(=O)N(c4ccccc4)N=C3C)cc2)CC1` [Compound 95], the IC50 under setting [1] is less than 40 µM.
For the molecule `CC1=NN(c2cccc(S(N)(=O)=O)c2)C(=O)/C1=C\c1ccc(N2CCN(c3ccccc3)CC2)cc1` [Compound 170], the IC50 under setting [1] is less than 10 µM.
The same measure, in the same setting: as for `CC1=NN(c2ccc(S(N)(=O)=O)cc2)C(=O)/C1=C\c1ccc(C(=O)O)cc1` [Compound 223], the figure is 10 to 20 µM; as for `COCC1=NN(c2ccc(C(=O)O)cc2)C(=O)/C1=C\c1ccc(N2CCN(C)CC2)cc1` [Compound 241], less than 40 µM; as for `CC1=NN(c2cccc(S(N)(=O)=O)c2)C(=O)/C1=C\c1ccc(N2CCC(CO)CC2)cc1` [Compound 173], less than 40 µM.
On to `O=C(O)c1ccc(N2N=C(c3ccoc3)/C(=C/c3ccc(N4CCC(CO)CC4)cc3)C2=O)cc1` [Compound 438], for which the IC50 under setting [1] is less than 10 µM.
On to `CC1=NN(c2ccc(C(=O)N3CCC(CO)CC3)cc2)C(=O)/C1=C\c1ccc2[nH]ccc2c1` [Compound 361], for which the IC50 under setting [1] was less than 10 µM.
In the case of `O=C1/C(=C\c2ccc(CO)o2)C(C2CC2)=NN1c1ccccc1` [Compound 75], under setting [1], the IC50 lay within 10 to 20 µM.
In the case of `CC1=NN(c2ccccc2)C(=O)/C1=C\c1ccc(OCC(=O)N(C)C)cc1` [Compound 206], under setting [1], the IC50 was less than 40 µM.
In the case of `CC1=NN(c2ccc(C(=O)NCc3ccc4c(c3)OCO4)cc2)C(=O)/C1=C\c1ccc2c(c1)OCCO2` [Compound 397], the IC50 under setting [1] was in the range of 10 to 20 µM.
Take `CC1=NN(c2ccc(C(=O)O)cc2)C(=O)/C1=C\c1ccsc1` [Compound 511]: the IC50 under setting [1] is less than 40 µM.
Take `O=C1/C(=C\c2ccc(-n3cncn3)cc2)C(C2CC2)=NN1c1ccccc1` [Compound 80]: the IC50 under setting [1] was less than 40 µM.
The same measure, in the same setting: as for `CCCNC(=O)COc1ccc(/C=C2\C(=O)N(c3ccc(C(=O)O)cc3)N=C2C)cc1` [Compound 534], the figure is 10 to 20 µM.
